Experimental data as given in patent US6887896B1, “7-[(7-Alkoxy)-chrom-3-en-6-yl]-heptatrienoic acid and 7-[(3-alkoxy)-5,6-dihydronaphthalen-2-yl]-heptatrienoic acid derivatives having serum glucose reducing activity” (Allergan, Inc., priority 2003, dated 2005).

Columns and labels:
RXRβ = biological target: T1, RXRβ (UniProt P28704); test: holoreceptor transactivation assay, RXRβ; format: cell-based; conditions: for EC50: holoreceptor transactivation, read-out: RXR Trans. EC50 β; for RXR Trans. efficacy (number in parentheses) β: percentage compared to the standard compound
T1 sequence (P28704 1-520): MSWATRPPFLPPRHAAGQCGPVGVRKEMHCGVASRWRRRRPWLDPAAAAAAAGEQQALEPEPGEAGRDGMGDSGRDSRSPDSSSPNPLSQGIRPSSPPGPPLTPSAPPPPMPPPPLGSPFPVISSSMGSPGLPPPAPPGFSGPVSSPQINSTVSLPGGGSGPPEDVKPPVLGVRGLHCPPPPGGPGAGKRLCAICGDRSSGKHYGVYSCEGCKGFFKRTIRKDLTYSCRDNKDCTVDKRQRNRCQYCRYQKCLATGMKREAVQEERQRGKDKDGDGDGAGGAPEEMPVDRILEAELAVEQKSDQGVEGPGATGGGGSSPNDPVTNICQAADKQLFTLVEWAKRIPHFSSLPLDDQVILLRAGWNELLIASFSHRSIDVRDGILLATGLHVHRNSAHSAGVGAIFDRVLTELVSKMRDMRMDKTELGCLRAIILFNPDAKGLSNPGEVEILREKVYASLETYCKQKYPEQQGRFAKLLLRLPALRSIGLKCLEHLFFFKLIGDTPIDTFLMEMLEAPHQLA
Procedure, shortened: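 Agonist-like activity measured by transactivation: RXR subtypes in a holoreceptor assay, RAR subtypes in a chimeric receptor assay. Values are EC50 in nM. Efficacy is given as percentage of maximum relative to the standard (2E,4E,1′S,2′S)-3-methyl-5-[2′-methyl-2′-(5,5,8,8-tetramethyl-5,6,7,8-tetrahydro-naphthalen-2-yl)cyclopropyl]-penta-2,4-dienoic acid.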

RARγ = biological target: T2, RARγ (Homo sapiens, UniProt P13631); test: chimeric receptor transactivation assay, RARγ; format: cell-based; conditions: read-out: RAR Trans. EC50 γ
T2 sequence (P13631 185-419 limits assumed): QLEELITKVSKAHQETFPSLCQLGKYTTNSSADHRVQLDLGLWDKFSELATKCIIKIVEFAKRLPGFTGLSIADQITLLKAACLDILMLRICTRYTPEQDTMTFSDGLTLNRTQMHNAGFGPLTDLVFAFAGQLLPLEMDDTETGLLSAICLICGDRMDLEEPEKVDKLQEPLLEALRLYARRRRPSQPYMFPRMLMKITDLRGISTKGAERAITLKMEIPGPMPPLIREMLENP
From the text: Specifically, one such assay is a chimeric receptor transactivation assay which tests for agonist-like activity in the R RAPE and RAR7 receptor subtypes, and which is based on work published by Feigner, P. L. and Holm, M (1989) Focus, 112 is described in detail in U.S. Pat. No. 5,455,265. The specification of U.S. Pat. No. 5,455,265 is hereby expressly incorporated by reference. A holoreceptor transactivation assay and a ligand binding assay which measure the antagonist/agonist like activity of the compounds of the invention, or their ability to bind to the several retinoid receptor subtypes, respectively, are described in published PCT Application No. WO WO93/11755 (particularly on pages 30-33 and 37-41) published on Jun. 24, 1993, the specification of which is also incorporated herein by reference. A detailed experimental procedure for holoreceptor transactivations has been described by Heyman et al. Cell 68, 397-406, (1992); Allegretto et al. J. Biol. Chem. 268, 26625-26633, and Mangelsdorf et al. The Retinoids: Biology, Chemistry and Medicine, pp 319-349, Raven Press Ltd., New York, which are expressly incorporated herein by reference. The results obtained in this assay are expressed in EC50 numbers, as they are also in the chimeric receptor transactivation assay. The results of the ligand binding assay are expressed in Ki numbers. […]
Efficacy in a transactivation assay is expressed as a percentage of the maximum potency attained by the compound compared to a standard which, in this case, is the compound named (2E,4E,1′S,2′S)-3-methyl-5-[2′-methyl-2′-(5,5,8,8-tetramethyl-5,6,7,8-tetrahydro-naphthalen-2-yl)-cyclopropyl]-penta-2,4-dienoic acid. […]
(§1) Generally speaking, in the tables disclosing the results of transactivation and binding assays the numbers in parentheses indicate efficacy as a percentage compared to the standard compound, (2E,4E,1′S,2′S)-3-methyl-5-[2′-methyl-2′-(5,5,8,8-tetramethyl-5,6,7,8-tetrahydro-naphthalen-2-yl)cyclopropyl]-penta-2,4-dienoic acid and the other numbers indicate the measured EC50 and K; in nanomolar concentration.

RARα = biological target: T3, RARα (Homo sapiens, UniProt P10276); test: chimeric receptor transactivation assay, RARα; format: cell-based; conditions: for EC50: chimeric receptor transactivation, read-out: RAR Trans. EC50 α; for Emax: percentage compared to the standard compound, read-out: RAR Trans. efficacy (number in parentheses) α
T3 sequence (P10276 183-417 limits assumed): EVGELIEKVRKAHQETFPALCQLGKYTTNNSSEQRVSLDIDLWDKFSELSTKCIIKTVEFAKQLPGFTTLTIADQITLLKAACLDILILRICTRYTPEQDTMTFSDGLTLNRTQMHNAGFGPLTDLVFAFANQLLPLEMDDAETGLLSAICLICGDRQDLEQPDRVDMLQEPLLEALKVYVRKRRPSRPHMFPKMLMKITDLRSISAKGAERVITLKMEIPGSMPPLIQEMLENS
From the text: (§2) Specifically, one such assay is a chimeric receptor transactivation assay which tests for agonist-like activity in the R RAPE and RAR7 receptor subtypes, and which is based on work published by Feigner, P. L. and Holm, M (1989) Focus, 112 is described in detail in U.S. Pat. No. 5,455,265. The specification of U.S. Pat. No. 5,455,265 is hereby expressly incorporated by reference. A holoreceptor transactivation assay and a ligand binding assay which measure the antagonist/agonist like activity of the compounds of the invention, or their ability to bind to the several retinoid receptor subtypes, respectively, are described in published PCT Application No. WO WO93/11755 (particularly on pages 30-33 and 37-41) published on Jun. 24, 1993, the specification of which is also incorporated herein by reference. A detailed experimental procedure for holoreceptor transactivations has been described by Heyman et al. Cell 68, 397-406, (1992); Allegretto et al. J. Biol. Chem. 268, 26625-26633, and Mangelsdorf et al. The Retinoids: Biology, Chemistry and Medicine, pp 319-349, Raven Press Ltd., New York, which are expressly incorporated herein by reference. The results obtained in this assay are expressed in EC50 numbers, as they are also in the chimeric receptor transactivation assay. The results of the ligand binding assay are expressed in Ki numbers. (See Cheng et al. Biochemical Pharmacology Vol. 22 pp 3099-3108, expressly incorporated herein by reference.)
Efficacy in a transactivation assay is expressed as a percentage of the maximum potency attained by the compound compared to a standard which, in this case, is the compound named (2E,4E,1′S,2′S)-3-methyl-5-[2′-methyl-2′-(5,5,8,8-tetramethyl-5,6,7,8-tetrahydro-naphthalen-2-yl)-cyclopropyl]-penta-2,4-dienoic acid. This standard compound is described in U.S. Pat. No. 6,114,533.
The specification of this application for patent is organized in several sections in accordance with structural Formulas A through F each of which discloses a group of preferred compounds within the scope of the invention. Tables that disclose the activity of certain exemplary compounds of the invention in the above-described RXR receptor transactivation and binding assays are found in the corresponding sections. […] The transactivation data pertaining to the activation of RXR receptors were obtained in the holoreceptor assay.
as §1

RXRγ = biological target: T4, RXRγ (UniProt P28705); test: ligand binding assay, RXRγ; conditions: Table 9 (Formula F); read-out: RXR γ Kd
T4 sequence (P28705 1-463): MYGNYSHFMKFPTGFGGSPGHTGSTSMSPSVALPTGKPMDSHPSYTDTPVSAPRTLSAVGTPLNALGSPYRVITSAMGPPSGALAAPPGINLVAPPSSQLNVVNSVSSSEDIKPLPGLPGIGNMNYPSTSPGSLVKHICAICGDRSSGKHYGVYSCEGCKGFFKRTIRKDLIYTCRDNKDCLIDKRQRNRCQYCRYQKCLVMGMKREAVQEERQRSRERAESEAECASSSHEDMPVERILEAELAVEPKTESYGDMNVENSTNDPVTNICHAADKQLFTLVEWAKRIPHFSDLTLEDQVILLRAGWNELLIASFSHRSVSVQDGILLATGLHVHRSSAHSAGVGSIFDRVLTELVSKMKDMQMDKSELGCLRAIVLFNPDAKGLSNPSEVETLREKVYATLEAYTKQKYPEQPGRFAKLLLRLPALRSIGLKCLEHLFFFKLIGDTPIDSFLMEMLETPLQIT
From the text: as §2, §1

ob/ob mice = test: serum glucose, triglycerides and T4 in diabetic mice, oral gavage in corn oil daily for seven days; format: in vivo; conditions: 80 mg/kg, corn oil vehicle (second Table 9)

Row | Compound | EC50 (RXRβ) | RXR Trans. efficacy (number in parentheses) β (RXRβ) | EC50 (RARγ) | EC50 (RARα) | Emax (RARα) | Kd (RXRγ) | T4 Day 7 (ob/ob mice) | Glucose Day 3, 3 h (ob/ob mice) | Glucose Day 6, 3 h (ob/ob mice) | Triglycerides Day 3, 3 h (ob/ob mice) | Glucose Day 0 (ob/ob mice; day 0 (pre-treatment)) | Triglycerides Day 0 (ob/ob mice; day 0 (pre-treatment))
1 | CCOc1c(\C(CC)=C(F)/C=C/C(C)=C/C(=O)O)cc2c(c1Br)C(C)(C)CC=C2C(C)C [Compound A-170, (2E,4E,6E)-7-(4-Bromo-3-ethoxy-8-isopropyl-5,5-dimethyl-5,6-dihydro-naphthalen-2-yl)-6-fluoro-3-methyl-nona-2,4,6-trienoic acid] | 1 nM | 59% |  |  |  | 29 nM | 2.7 µg/dL | 294 mg/dL | 255 mg/dL | 195 mg/dL | 423 mg/dL | 168 mg/dL
2 | CCOc1c(\C(=C(F)/C=C/C(C)=C/C(=O)O)C(C)C)cc2c(c1Br)C(C)(C)CC=C2C(C)C [Compound A-171, (2E,4E,6E)-7-(4-Bromo-3-ethoxy-8-isopropyl-5,5-dimethyl-5,6-dihydro-naphthalen-2-yl)-6-fluoro-3.8-dimethyl-nona-2.4,6-trienoic acid] | 3 nM | 30% |  | 3 nM | 13% | 112 nM |  |  |  |  |  | 

Second part, led by results:

Row | EC50 (RXRβ) | RXR Trans. efficacy (number in parentheses) β (RXRβ) | EC50 (RARγ) | EC50 (RARα) | Emax (RARα) | Kd (RXRγ) | T4 Day 7 (ob/ob mice) | Compound | Glucose Day 3, 3 h (ob/ob mice) | Glucose Day 6, 3 h (ob/ob mice) | Triglycerides Day 3, 3 h (ob/ob mice) | Glucose Day 0 (ob/ob mice; day 0 (pre-treatment)) | Triglycerides Day 0 (ob/ob mice; day 0 (pre-treatment))
3 | 0.5 nM | 53% | > 10000 nM | 1 nM | 8% | 61 nM |  | CCOc1c(\C(CC)=C(F)/C=C/C(C)=C/C(=O)O)cc2c(c1Cl)C(C)(C)CC=C2C(C)C [Compound A-178, (2E,4E,6E)-7-(4-Chloro-3-ethoxy-8-isopropyl-5,5-dimethyl-5,6-dihydronaphthalen-2-yl)-6-fluoro-3-methyl-nona-2,4,6-trienoic acid] |  |  |  |  | 
4 | > 1000 nM |  | 2 nM |  |  |  |  | CCOc1cc2c(cc1\C(CC)=C(F)/C=C/C(C)=C/C(=O)O)C=CCC2(C)C [Compound A-77] |  |  |  |  | 
5 | 7 nM | 25% |  |  |  | 34 nM |  | CCOc1c(\C(C)=C(F)/C=C/C(C)=C/C(=O)O)cc2c(c1Br)C(C)(C)CC=C2C(C)(C)C [Compound A-174, (2E,4E,6E)-7-(4-Bromo-8-tert-butyl-3-ethoxy-5,5-dimethyl-5,6-dihydro-naphthalen-2-yl)-6-fluoro-3-methyl-octa-2,4,6-trienoic acid] |  |  |  |  | 
6 | 368 nM | 128% | > 10000 nM |  |  |  |  | CCOc1cc2c(cc1\C(C)=C(F)/C=C/C(C)=C/C(=O)O)C=CCC2(C)C [Compound A-76, (2E,4E,6E)-7-(3-Ethoxy-5,5-dimethyl-5,6-dihydro-naphthalen-2-yl)-6-fluoro-3-methyl-octa-2,4.6-trienoic acid] |  |  |  |  | 
